Read-outs that look alike come from different tables or passages of the source.
Assays:
[1] = tested on: gel-filtered human platelets; experiment: Inhibition of aggregation of gel-filtered human platelets after ADP or thrombin stimulation; assay type: cell-based; conditions: platelet aggregation
Protocol: (§1) The compounds are tested above all for their inhibiting action on blood platelet aggregation and the adhesion of fibrinogen to blood platelets.
(§2) Gel-filtered blood platelets from human donor blood activated with ADP or thrombin are used.
B) As a functional test, the inhibition of aggregation of gel-filtered human platelets by the compounds according to the invention after ADP or thrombin stimulation is measured. The IC50 value of the inhibition is stated.

[2] = target: T1, fibrinogen receptor (glycoprotein IIb/IIIa) (Homo sapiens, UniProt P05106+P08514); experiment: Inhibition of bonding of 125I-fibrinogen to its receptor on intact, gel-filtered human platelets; assay type: binding; conditions: inhibition of 125I-fibrinogen bonding after stimulation with ADP (10 μM), read-out: K1 (μm), ADP stimulated
T1 construct: its receptor (glycoprotein IIb/IIIa) on intact, gel-filtered human platelets; endogenous in cells; host or cells: gel-filtered human platelets from donor blood, stimulated with ADP (10 µM)
Protocol: as §1, §2
A) Inhibition of bonding of fibrinogen to its receptor (glycoprotein IIb/IIIa) on intact, gel-filtered human platelets by the compounds according to the invention is tested. The Ki value of the inhibition of the bonding of ^125 I-fibrinogen after stimulation with ADP (10 μM) is stated.
Literature: J. S. Bennett and G. Vilaire, J. Clin. Invest. 64 (1979), 1393-1401

[3] = ADP stimulation, read-out: IC50 (μM), ADP-stimulated
[4] = thrombin stimulation, read-out: IC50 (μM), Thrombin-stimulated
[5] = Homo sapiens, ADP stimulation, read-out: IC50 (μM), ADP-stimulated
[6] = Homo sapiens, thrombin stimulation, read-out: IC50 (μM), Thrombin-stimulated

T1 sequence (P08514 32-887 limits assumed): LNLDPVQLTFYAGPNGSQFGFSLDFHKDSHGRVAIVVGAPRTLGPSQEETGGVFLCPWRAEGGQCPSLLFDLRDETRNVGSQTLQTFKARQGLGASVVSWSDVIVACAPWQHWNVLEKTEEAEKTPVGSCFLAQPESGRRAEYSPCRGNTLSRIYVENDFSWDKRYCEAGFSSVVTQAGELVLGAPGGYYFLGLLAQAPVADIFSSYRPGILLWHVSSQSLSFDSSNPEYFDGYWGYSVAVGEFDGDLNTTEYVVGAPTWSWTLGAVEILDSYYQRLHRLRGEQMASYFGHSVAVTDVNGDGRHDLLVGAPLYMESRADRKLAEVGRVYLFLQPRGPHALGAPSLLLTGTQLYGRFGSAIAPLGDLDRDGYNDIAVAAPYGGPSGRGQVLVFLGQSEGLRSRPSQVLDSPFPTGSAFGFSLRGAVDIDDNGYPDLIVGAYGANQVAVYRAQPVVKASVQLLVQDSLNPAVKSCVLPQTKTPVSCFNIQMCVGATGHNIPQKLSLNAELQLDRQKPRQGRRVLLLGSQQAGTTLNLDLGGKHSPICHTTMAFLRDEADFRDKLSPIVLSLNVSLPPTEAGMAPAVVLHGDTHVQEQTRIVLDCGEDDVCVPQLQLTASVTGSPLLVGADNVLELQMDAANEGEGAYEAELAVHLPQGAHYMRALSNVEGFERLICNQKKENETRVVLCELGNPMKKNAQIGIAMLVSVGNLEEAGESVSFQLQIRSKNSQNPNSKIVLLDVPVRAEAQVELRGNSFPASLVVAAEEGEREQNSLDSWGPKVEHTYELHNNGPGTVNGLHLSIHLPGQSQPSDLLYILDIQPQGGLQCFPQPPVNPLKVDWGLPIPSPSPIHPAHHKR
T1 sequence (P08514 891-1039 partner limits assumed): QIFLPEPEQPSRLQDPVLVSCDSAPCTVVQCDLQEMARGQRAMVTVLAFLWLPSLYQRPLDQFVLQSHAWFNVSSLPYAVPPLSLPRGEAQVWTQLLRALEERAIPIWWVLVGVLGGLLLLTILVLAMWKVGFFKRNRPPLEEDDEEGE
T1 sequence (P05106 27-788): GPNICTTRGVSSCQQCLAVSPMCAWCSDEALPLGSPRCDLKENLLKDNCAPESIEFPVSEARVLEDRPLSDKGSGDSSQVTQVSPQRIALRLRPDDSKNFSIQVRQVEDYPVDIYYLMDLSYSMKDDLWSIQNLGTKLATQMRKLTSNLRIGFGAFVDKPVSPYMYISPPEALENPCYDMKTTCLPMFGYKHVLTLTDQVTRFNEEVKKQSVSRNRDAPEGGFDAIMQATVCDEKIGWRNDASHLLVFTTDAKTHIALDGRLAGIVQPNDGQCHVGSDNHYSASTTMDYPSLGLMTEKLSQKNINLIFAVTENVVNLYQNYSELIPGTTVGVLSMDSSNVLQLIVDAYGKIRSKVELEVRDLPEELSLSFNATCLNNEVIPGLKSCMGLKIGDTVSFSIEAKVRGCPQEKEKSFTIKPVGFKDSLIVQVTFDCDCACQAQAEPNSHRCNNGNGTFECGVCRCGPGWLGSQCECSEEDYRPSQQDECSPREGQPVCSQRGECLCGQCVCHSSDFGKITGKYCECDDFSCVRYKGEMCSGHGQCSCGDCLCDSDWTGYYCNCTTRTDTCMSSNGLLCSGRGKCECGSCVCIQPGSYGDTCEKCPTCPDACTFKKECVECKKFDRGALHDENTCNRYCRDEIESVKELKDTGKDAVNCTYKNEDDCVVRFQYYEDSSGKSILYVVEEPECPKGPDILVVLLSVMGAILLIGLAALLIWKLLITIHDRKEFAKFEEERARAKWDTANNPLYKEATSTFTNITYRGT

SMILES	IC50 [1, 3]	IC50 [1, 4]	Ki [2]	IC50 [1, 5]	IC50 [1, 6]
N=C(N)c1ccc(CC2NC(=O)N(CC(=O)NCCC(=O)O)C2=O)cc1 (racemic) [Example 6, [5-(S,R)-(4-Formamidino-benzyl) -2,4-dioxoimidazolidin-3-yl]-acetyl-β-alanine]	5.5 µM	3 µM	1910 nM	–	–
CC(C)[C@H](NC(=O)[C@H](CC(=O)O)NC(=O)CN1C(=O)NC(Cc2ccc(C(=N)N)cc2)C1=O)C(=O)O (stereo partly drawn) [Example 1, [5-(S,R )-(4-Formamidino-benzyl)-2,4-dioxoimidazolidin-3-yl]-acetyl-L-aspartyl-L-valine.]	0.4 µM	0.15 µM	31 nM	–	–
CC(C)[C@H](NC(=O)[C@H](CC(=O)O)NC(=O)CN1C(=O)[C@H](CCCNC(=N)N)N(C)C1=O)C(=O)O [Example 2]	–	–	400 nM	4.5 µM	1.5 µM
CC(C)[C@H](NC(=O)[C@H](CC(=O)O)NC(=O)CN1C(=O)N[C@@H](CCCCN)C1=O)C(=O)O [Example 3, [5-(S)-(4-Amino-butyl)-2,4-dioxoimidazolidin-3-yl]-acetyl-Asp-Val-OH]	30 µM	4 µM	–	–	–
N=C(N)c1ccc(CC2NC(=O)N(CC(=O)N[C@@H](CC(=O)O)C(=O)N[C@H](C(=O)O)c3ccccc3)C2=O)cc1 (stereo partly drawn) [Example 5, [5-(S,R)-(4-Formamidino-benzyl) -2,4-dioxoimidazolidin-3-yl]-acetyl-L-aspartyl-L-phenylglycine]	0.2 µM	0.1 µM	22 nM	–	–
CC(C)[C@H](NC(=O)[C@H](CC(=O)O)NC(=O)CN1C(=O)N[C@@H](Cc2ccc(N)cc2)C1=O)C(=O)O [Example 7]	–	–	2430 nM	–	–
CC(C)[C@H](NC(=O)[C@H](CC(=O)O)NC(=O)CN1C(=O)N[C@@H](Cc2ccc(NC(=N)N)cc2)C1=O)C(=O)O [Example 8]	–	–	710 nM	6 µM	3 µM
CC(C)[C@H](NC(=O)[C@H](CC(=O)O)NC(=O)c1cccc(N2C(=O)N[C@@H](CCCNC(=N)N)C2=O)c1)C(=O)O [Example 11, 3-(5-(S)-(3-Guanidinopropyl)-2,4-dioxoimidazolidin-3-yl)benzoyl-L-aspartyl-L-valine]	–	–	1870 nM	–	–
CC[C@H](C)[C@H](NC(=O)[C@H](CC(=O)O)NC(=O)CN1C(=O)NC(Cc2ccc(C(=N)N)cc2)C1=O)C(=O)O (stereo partly drawn) [Example 12, (5-(R,S)-(4-Formamidinobenzyl)-2,4-dioxo-imidazolidin-3-yl)-acetyl-L-aspartyl-L-isoleucine]	0.2 µM	0.1 µM	42 nM	–	–
N=C(N)c1ccc(CC2NC(=O)N(CC(=O)N[C@@H](CC(=O)O)C(=O)N[C@@H](CCCCN)C(=O)O)C2=O)cc1 (stereo partly drawn) [Example 13, (5-(R, S)-(4-Formamidinobenzyl)-2,4-dioxo-imidazolidin-3-yl) -acetyl-L-aspartyl-L-lysine]	0.35 µM	0.4 µM	42 nM	–	–
N=C(N)c1ccc(CC2NC(=O)N(CC(=O)N[C@@H](CC(=O)O)C(=O)N[C@@H](Cc3ccccc3)C(=O)O)C2=O)cc1 (stereo partly drawn) [Example 14, (5-(R,S)-(4-Formamidinobenzyl)-2,4-dioxo-imidazolidin-3-yl)-acetyl-L-aspartyl-L-phenylalanine]	0.55 µM	0.3 µM	270 nM	–	–
NCc1ccc(C=C2NC(=O)N(CC(=O)N[C@@H](CC(=O)O)C(=O)N[C@H](C(=O)O)c3ccccc3)C2=O)cc1 [Example 15]	–	–	280 nM	0.7 µM	0.45 µM
C[C@@H](O)[C@H](NC(=O)[C@H](CC(=O)O)NC(=O)CN1C(=O)NC(Cc2ccc(C(=N)N)cc2)C1=O)C(=O)O (stereo partly drawn) [Example 16, (5-(R,S)-(4-Formamidinobenzyl)-2,4-dioxo-imidazolidin-3-yl) -acetyl-L-aspartyl-L-threonine]	0.7 µM	0.2 µM	120 nM	–	–
CCCCCCCCCCCCCCCCOC(=O)[C@@H](NC(=O)[C@H](CC(=O)O)NC(=O)CN1C(=O)NC(Cc2ccc(C(=N)N)cc2)C1=O)c1ccccc1 (some centres unmarked) [Example 17]	4.5 µM	4 µM	–	–	–
NCc1ccc(CC2NC(=O)N(CC(=O)N[C@@H](CC(=O)O)C(=O)N[C@H](C(=O)O)c3ccccc3)C2=O)cc1 (stereo partly drawn) [Example 19, (5-(4-Aminomethylbenzyl)-2,4-dioxo-imidazolidin-3-yl)-acetyl-L-aspartyl-L-phenyglycine]	7 µM	2.5 µM	–	–	–
CN(C(=O)[C@H](CC(=O)O)NC(=O)CN1C(=O)NC(Cc2ccc(C(=N)N)cc2)C1=O)[C@H](C(=O)O)c1ccccc1 (stereo partly drawn) [Example 20, (5-(R,S)-(4-Formamidinobenzyl)-2,4-dioxo-imidazolidin-3-yl)-acetyl-L-aspartyl-(N-methyl)-L-phenylglycine]	4.5 µM	2.5 µM	1590 nM	–	–
CC(C)[C@H](NC(=O)[C@H](CC(=O)O)NC(=O)CN1C(=O)NC(Cc2ccc(C(=N)N)cc2)C1=O)C(=O)OCc1ccccc1 (stereo partly drawn) [Example 21, (5-(R,S)-(4-Formamidinobenzyl) -2,4-dioxo-imidazolidin-3-yl) -acetyl-L-aspartyl-L-valine benzyl ester]	0.7 µM	0.3 µM	240 nM	–	–
N=C(N)c1ccc(CC2NC(=O)N(CC(=O)N[C@@H](CC(=O)O)C(=O)N[C@@H](Cc3c[nH]c4ccccc34)C(=O)O)C2=O)cc1 (stereo partly drawn) [Example 22, (5-(R,S)-(4-Formamidinobenzyl)-2,4-dioxo-imidazolidin-3-yl)-acetyl-L-aspartyl-L-tryptophan]	0.8 µM	0.25 µM	140 nM	–	–
CC(C)[C@H](NC(=O)[C@H](CC(=O)O)NC(=O)CCN1C(=O)N[C@@H](CCCCN)C1=O)C(=O)O [Example 32]	–	–	2710 nM	6 µM	2 µM
